Non-standard residues stand in square brackets, D forms with d. Residues, ends and D or L forms follow the SMILES beside them. No end group written: not given here.
Assays:
[1] = test system: A. baumannii A-8.2–1 (XDR); test: microbe, parasite or virus in culture; type: cell-based, Acinetobacter baumannii; settings: clinical isolate A-8.2–1 (XDR), blood
Procedure, shortened: (§1)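 Lowest concentration preventing growth defined MIC (CLSI-based broth dilution, MHB, 2–8 × 10^5 CFU/mL); MBC was scored by colony-count plating of non-turbid wells, with absence of colonies marking the bactericidal level.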

A. baumannii ATCC 19,606 = test: microbe, parasite or virus in culture; type: cell-based, Acinetobacter baumannii; settings: A. baumannii ATCC 19,606, triplicate; for MIC: broth microdilution (modified CLSI), MHB, 2–8 × 10^5 CFU/mL, 24 h, 37 °C; for MBC: colony count from non-turbid MIC wells
Procedure, shortened: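 Modified CLSI broth microdilution: mid-log bacteria in Müeller-Hinton broth at 2–8 × 10^5 CFU/mL incubated with test agents in 96-well plates. MBC taken as lowest peptide concentration giving no colonies when non-turbid MIC wells were plated on agar. Triplicate.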

[2] = test system: A. baumannii B-8.1–1 (MDR); test: microbe, parasite or virus in culture; type: cell-based, Acinetobacter baumannii; settings: clinical isolate B-8.1–1 (MDR), respiratory tract
Procedure, shortened: as §1

[3] = test system: A. baumannii B-8.1–2 (MDR); test: microbe, parasite or virus in culture; type: cell-based, Acinetobacter baumannii; settings: clinical isolate B-8.1–2 (MDR), respiratory tract
Procedure, shortened: as §1

[4] = test system: A. baumannii B-8.2–2 (XDR); test: microbe, parasite or virus in culture; type: cell-based, Acinetobacter baumannii; settings: clinical isolate B-8.2–2 (XDR), respiratory tract
Procedure, shortened: as §1

[5] = test system: A. baumannii C-8.1–2 (MDR); test: microbe, parasite or virus in culture; type: cell-based, Acinetobacter baumannii; settings: clinical isolate C-8.1–2 (MDR), sterile site
Procedure, shortened: as §1

[6] = test system: A. baumannii C-8.2–1 (XDR); test: microbe, parasite or virus in culture; type: cell-based, Acinetobacter baumannii; settings: clinical isolate C-8.2–1 (XDR), sterile site
Procedure, shortened: as §1

[7] = test system: human red blood cells (hRBCs); test: Hemolysis assay; type: cell-based; settings: hRBCs, peptide 250 µg/mL, 1 h, 37 °C
Method: The hemolytic activity of peptides was determined as the amount of hemoglobin released from lysed human red blood cells (hRBCs) after treatment with peptide. Fresh hRBCs were collected from a healthy volunteer in polycarbonate tubes containing heparin. Then, the collected packed RBCs were washed at least three times (or until the supernatant was clear) with sterile phosphate-buffered saline pH 7.4 (PBS) and centrifuged at 2,000 × g for 5 min. The 2% (v/v) of washed hRBCs in PBS were incubated with serially diluted peptides (0.98 to 250 μg/ml) for 1 h at 37 °C. After centrifugation, the supernatants were monitored for optical density (OD) at 405 nm using a Multiskan FC Microplate Reader[21]. Values for 0% (negative control) and 100% (positive control) lysis were determined by incubating the hRBCs with PBS only (ODBlank) and 0.1% (v/v) Triton X-100 (ODTriton X-100), respectively. The experiments were performed in triplicate. The percent hemolysis was calculated according to the following equation: %Hemolysis=ODSample-ODBlank/ODTriton X-100-ODBlank×100

[8] = test system: mouse fibroblast (L929) cells; test: In vitro cytotoxicity assay (MTT); type: cell-based; settings: 24 h
Method: The colorimetric 3-(4,5 dimethylthiazol-2-yl)-2,5-diphenyltetrazolium bromide (MTT; Invitrogen) dye reduction assay was used to determine the cytotoxicity of peptides on mouse fibroblast (L929) cells (NCTC clone 929) according to a modified MTT assay. L929 cells were cultured in Dulbecco’s Modified Eagle Medium (DMEM; Gibco) containing 10% fetal bovine serum (FBS; Gibco) and 100 U/ml penicillin–streptomycin in a fully humidified atmosphere of 95% air and 5% CO2 at 37 °C. The cells (10^5 cells/well) were seeded on 96-well plates and incubated with serially diluted peptide (0.98 to 250 μg/ml) for 24 h. At the end of incubation period, MTT solution (100 µl, 0.4 mg/ml) was added to each well and incubated for 4 h. The supernatants were removed and replaced by 100 µl of DMSO to dissolve the purple formazan crystals. Absorbance was measured using a MultiskanTM FC microplate reader at a wavelength of 570 nm. Cells without peptides served as negative controls. Cell viability (percentage) was calculated using the following equation: %Cell viability=OD570of treated sample-ODBlank/OD570of control-ODBlank×100%

| Compound | MBC [1] | MIC [1] | MIC (A. baumannii ATCC 19,606) | MBC (A. baumannii ATCC 19,606) | MBC [2] | MIC [2] | MBC [3] | MIC [3] | MBC [4] | MIC [4] | MBC [5] | MIC [5] | MBC [6] | MIC [6] | Hemolysis [7] [%] | cell viability ([8]; 1 × and 2 × MIC) [%] | cell viability ([8]; peptide 62.5 µg/mL) | cell viability ([8]; all tested peptide concentrations (0.98 to 250 μg/ml)) [%] |
| --- | --- | --- | --- | --- | --- | --- | --- | --- | --- | --- | --- | --- | --- | --- | --- | --- | --- | --- |
| CC[C@@H](C)[C@@H](NC(=O)[C@@H](CCCCN)NC(=O)CNC(=O)[C@@H](C)NC(=O)[C@H](NC(=O)[C@@H](CCCCN)NC(=O)[C@@H](CCCCN)NC(=O)[C@H](NC(=O)[C@@H](CCCNC(=N)N)NC(=O)[C@@H](CCCNC(=N)N)NC(=O)[C@@H](Cc1ccccc1)NC(=O)[C@@H](CC(C)C)NC(=O)[C@H](N)CCCNC(=N)N)C(C)C)C(C)C)C(=O)N[C@H](C)C(=O)N[C@H](CCCCN)C(=O)N[C@H](CCCNC(=N)N)C(=O)N[C@@H](C(=O)N[C@H](Cc1c[nH]c2ccccc12)C(=O)N[C@H](CCCCN)C(N)=O)[C@H](C)CC [D-AP19] (H-[dR][dL][dF][dR][dR][dV][dK][dK][dV][dA]G[dK][dI][dA][dK][dR][dI][dW][dK]-NH2) | 7.81(7.81) µg/ml | 7.81(7.81) µg/ml | 7.81 (7.81) µg/ml | 7.81 (7.81) µg/ml | 7.81(7.81) µg/ml | 7.81(7.81) µg/ml | 15.63(15.63) µg/ml | 15.63(15.63) µg/ml | 7.81(7.81) µg/ml | 7.81(7.81) µg/ml | 3.91(3.91) µg/ml | 3.91(3.91) µg/ml | 7.81(7.81) µg/ml | 7.81(7.81) µg/ml | 3.28 | 100 | more than 70% | – |
| RLFRRVKKVAGKIAKRIWK-NH2 [AP19] | 3.91(3.91) µg/ml | 3.91(3.91) µg/ml | 7.81 µg/mL | 7.81 (7.81) µg/ml | 7.81(7.81) µg/ml | 7.81(7.81) µg/ml | 7.81(7.81) µg/ml | 7.81(7.81) µg/ml | 7.81(7.81) µg/ml | 7.81(7.81) µg/ml | 3.91(3.91) µg/ml | 3.91(3.91) µg/ml | 7.81(7.81) µg/ml | 7.81(7.81) µg/ml | 7.25 | – | – | 100 |

From paper PMC9508196 (Scientific Reports, 2022)
